{"source": "patent US20120316144A1", "about": "“ANTIFUNGAL AGENT” (priority 2010, published 2012)", "key": {"Malassezia [1]": {"tested_on": "Malassezia", "experiment": "Antifungal (Malassezia) paper disk test of fractionated ingredients of mastic normal-hexane extract with squalene", "type": "cell-based", "details": "for diameter of antiproliferative circle, First time / diameter of antiproliferative circle, Second time / diameter of antiproliferative circle, Average: Malassezia, Mueller-Hinton media, fraction 5 mg/disk + squalene 25 mg/disk; for diameter of antiproliferative circle, Average: average of two runs; for anti-Malassezia activity (in words): combination with squalene, summary of Table 4", "procedure": "The fractions fractionated in the first example were respectively dissolved in acetone. Paper disks for antibiotic assay which are the same as the paper disks for antibiotic assay used in the third example were impregnated with the obtained respective fraction solutions of 5 mg/disk. Moreover, squalene was added to each of the paper disks for antibiotic assay by 25 mg/disk, to prepare disks to be tested. Then, the respective disks to be tested were vacuum-dried to eliminate the acetone. Further, the Malassezia prepared to be approximately 10^6 CFU/ml was applied to the Mueller-Hinton media. Next, the respective disks to be tested were placed on the Mueller-Hinton media, and cultured for two days under an aerobic condition at 37° C. Then, the diameters (mm) of antiproliferative circles formed around the respective disks to be tested were measured."}, "Malassezia [2]": {"tested_on": "Malassezia", "experiment": "Antifungal (Malassezia) paper disk test of mastic normal-hexane extract and squalene", "type": "cell-based", "details": "Mueller-Hinton media, squalene 25 mg/disk alone", "procedure": "Mastic normal-hexane extract (MH) was dissolved in acetone. Then, paper disks for antibiotic assay which are the same as the paper disks for antibiotic assay used in the third example were impregnated with the obtained MH solution, to prepare a disk to be tested impregnated with the MH solution of 5 mg/disk, a disk to be tested impregnated with the MH solution of 10 mg/disk, and a disk to be tested impregnated with the MH solution of 20 mg/disk. These disks to be tested were prepared two each, respectively. Further, the S solution, which was obtained by dissolving squalene (S) in acetone, was added to each of some disks to be tested prepared in this way by 25 mg/disk, to prepare disks of mixture of the mastic normal-hexane extract and squalene (MH+S) as well. Further, as standard controls, paper disks for antibiotic assay which are the same as the paper disks for antibiotic assay used in the third example were impregnated with the S solution of 25 mg/disk, to prepare a disk to be tested. Then, the respective disks to be tested were vacuum-dried to eliminate the acetone. Further, the Malassezia prepared to be approximately 10^6 CFU/ml was applied to the Mueller-Hinton media. […] Then, the diameters (mm) of antiproliferative circles formed around the respective disks to be tested were measured."}}}
{"smiles": "CC1(C)C=C2C(=CC[C@]3(C)C2CC[C@@H]2[C@@]4(C)CCC(=O)C(C)(C)[C@@H]4CC[C@]23C)CC1", "note": "(stereo partly shown) [Fr. 1, 3-oxo-28-norolean-16,18-diene]", "values": [{"measurement": "diameter of antiproliferative circle, First time", "setting": "Malassezia [1]", "value": 25, "unit": "mm"}, {"measurement": "diameter of antiproliferative circle, Second time", "setting": "Malassezia [1]", "value": 22, "unit": "mm"}, {"measurement": "diameter of antiproliferative circle, Average", "setting": "Malassezia [1]", "value": 23.5, "unit": "mm"}, {"measurement": "anti-Malassezia activity (in words)", "setting": "Malassezia [1]", "value": "potent anti-Malassezia activity"}]}
{"smiles": "CC1(C)CC[C@]2(C=O)CC[C@]3(C)C(=CC[C@@H]4[C@@]5(C)CCC(=O)C(C)(C)[C@@H]5CC[C@]43C)C2C1", "note": "(stereo partly shown) [Fr. 3, olean-12-en-3,28-dione]", "values": [{"measurement": "diameter of antiproliferative circle, First time", "setting": "Malassezia [1]", "value": 25, "unit": "mm"}, {"measurement": "diameter of antiproliferative circle, Second time", "setting": "Malassezia [1]", "value": 25, "unit": "mm"}, {"measurement": "diameter of antiproliferative circle, Average", "setting": "Malassezia [1]", "value": 25, "unit": "mm"}, {"measurement": "anti-Malassezia activity (in words)", "setting": "Malassezia [1]", "value": "potent anti-Malassezia activity"}]}
{"smiles": "CC(C)=CCC[C@H](C)[C@@H]1CC[C@]2(C)C3=C(CC[C@@]12C)[C@@]1(C)CC[C@H](O)C(C)(C)[C@@H]1CC3", "note": "[Fr. 5-1, Tirucallol]", "values": [{"measurement": "anti-Malassezia activity (in words)", "setting": "Malassezia [1]", "value": "potent anti-Malassezia activity"}]}
{"smiles": "CC1(C)CC[C@]2(C)CC[C@]3(C)C(=CC[C@@H]4[C@@]5(C)CC[C@H](O)C(C)(C)[C@@H]5CC[C@]43C)C2C1", "note": "(stereo partly drawn) [Fr. 5-2, β-amylin]", "values": [{"measurement": "anti-Malassezia activity (in words)", "setting": "Malassezia [1]", "value": "potent anti-Malassezia activity"}]}
{"smiles": "CC1(C)CCC2(O)CC[C@]3(C)C(=CC[C@@H]4[C@@]5(C)CCC(=O)C(C)(C)[C@@H]5CC[C@]43C)C2C1", "note": "(stereo partly shown) [Fr. 6, 3-oxo-17-hydroxy-norolean-12-ene]", "values": [{"measurement": "diameter of antiproliferative circle, First time", "setting": "Malassezia [1]", "value": 21, "unit": "mm"}, {"measurement": "diameter of antiproliferative circle, Second time", "setting": "Malassezia [1]", "value": 19, "unit": "mm"}, {"measurement": "diameter of antiproliferative circle, Average", "setting": "Malassezia [1]", "value": 20, "unit": "mm"}, {"measurement": "anti-Malassezia activity (in words)", "setting": "Malassezia [1]", "value": "potent anti-Malassezia activity"}]}
{"smiles": "CC(C)=CCC[C@](C)(O)[C@H]1CC[C@]2(C)C1CCC1[C@@]3(C)CCC(=O)C(C)(C)[C@@H]3CC[C@]12C", "note": "(stereo partly shown) [Fr. 8, 3-oxo-20-hydroxy-dammar-24-ene]", "values": [{"measurement": "diameter of antiproliferative circle, First time", "setting": "Malassezia [1]", "value": 25, "unit": "mm"}, {"measurement": "diameter of antiproliferative circle, Second time", "setting": "Malassezia [1]", "value": 24, "unit": "mm"}, {"measurement": "diameter of antiproliferative circle, Average", "setting": "Malassezia [1]", "value": 24.5, "unit": "mm"}, {"measurement": "anti-Malassezia activity (in words)", "setting": "Malassezia [1]", "value": "potent anti-Malassezia activity"}]}
{"smiles": "CC(C)=CCC/C(C)=C/CC/C(C)=C/CC/C=C(\\C)CC/C=C(\\C)CCC=C(C)C", "note": "[S, squalene]", "values": [{"measurement": "Antiproliferative Circles (mm)", "setting": "Malassezia [2]", "value": 11, "unit": "mm"}]}
